Assay results taken from US20060252807A1, “Novel ortho-terphenyl inhibitors of p38 kinase and methods of treating inflammatory disorders” (Kalypsys, Inc., priority 2005, published 2006).

What was measured:
[1] = molecular target: T1, active p38 alpha enzyme (Upstate Biotechnology) (Homo sapiens, UniProt Q16539); experiment: p38α biochemical assay (ATP turnover, luminescent detection, Cambrex PKlight); conditions: Table 1 Biological Activity
T1 construct: purchased Upstate Biotechnology
How it was run: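 p38α + MapkapK2 (whole protein substrate) + 1.4 uM ATP final; Tris/MOPS buffer with MgCl2, CaCl2, EGTA, EDTA, glycerol, β-ME, BSA; 2 h at 30C; luminescent detection of remaining ATP.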

[2] = test system: TNF-α production; experiment: TNF-α production by LPS-stimulated rats (ELISA); type: in vivo, Male Lewis rats; conditions: rat, −1 hr before LPS; for inhibition at 30 mg/kg / inhibition at 10 mg/kg: read-out: LPS Induced TNF alpha (−1 hr) In Vivo (+) = >15% Inhibition (−) = ≦15% Inhibition; for ED50: oral dosing, read-out: LPS Induced TNF alpha (−1 hr) In Vivo (+) = ED50 ≦ 10 (−) = ED50 > 10
Protocol: TNF-α Production by LPS-Stimulated Mice
Male Lewis rats (180-200 g) were injected intraperitoneally with lipopolysaccharide (LPS) (50 μg/kg of E. coli strain 0111:B4, Sigma) suspended in sterile saline. Ninety minutes later, mice were sedated by CO2:O2 inhalation and a blood sample was obtained. Serum was separated and analyzed for TNF-α concentrations by commercial ELISA assay per the manufacturer's instructions (R&D Bioscience). Test compounds were administered orally at various times before LPS injection. The compounds were dosed either as suspensions or as solutions in various vehicles or solubilizing agents.
Compounds were dosed 0.5 to 3 hours before LPS stimulation. Rats were anaesthetized with Isofluor and injected i.v. with 0.3 mg/kg of LPS* in a volume of 0.3 ml sterile saline. Ninety minutes after the LPS injection, blood samples were collected into heparin tubes for preparation of plasma samples. Repression of TNFα production is assessed by commercial ELISA and reported below in Table 2.

T1 sequence (Q16539 whole entry): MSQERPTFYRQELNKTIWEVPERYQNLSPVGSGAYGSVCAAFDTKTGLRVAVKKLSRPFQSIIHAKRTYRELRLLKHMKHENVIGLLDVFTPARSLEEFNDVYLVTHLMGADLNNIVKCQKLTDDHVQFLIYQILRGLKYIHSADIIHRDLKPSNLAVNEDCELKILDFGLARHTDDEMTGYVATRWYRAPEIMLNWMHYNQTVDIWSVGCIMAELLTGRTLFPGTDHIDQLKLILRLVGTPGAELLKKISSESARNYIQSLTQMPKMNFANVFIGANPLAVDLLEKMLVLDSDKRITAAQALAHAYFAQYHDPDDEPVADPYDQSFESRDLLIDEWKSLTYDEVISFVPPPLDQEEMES

SMILES	IC50 ([1]; p38α biochemical assay)	IC50 ([1]; p38α kinase)	inhibition at 30 mg/kg [2]	inhibition at 10 mg/kg [2]	ED50 [2]
Cc1onc(-c2ccccc2)c1-c1ccn(C(=O)NC(C)C)n1 [Example 1, 3-(5-Methyl-3-phenyl-isoxazol-4-yl)pyrazole-1-carboxylic acid isopropylamide]	≤ 1000 nM		> 15%		
Cc1onc(-c2ccc(F)cc2F)c1-c1ccn(C(=O)NC(C)C)n1 [Example 17, 3-|3-(2,4-Difluoro-phenyl)-5-methyl-isoxazol-4-yl|-pyrazole-1-carboxylic acid isopropylamide]	≤ 1000 nM		> 15%		
Cc1onc(-c2ccc(F)cc2)c1-c1ccn(C(=O)NC(C)C)n1 [Example 18, 3-|3-(4-Fluoro-phenyl)-5-methyl-isoxazol-4-yl|-pyrazole-1-carboxylic acid isopropylamide]	≤ 1000 nM		> 15%		
CC(C)NC(=O)n1ccc(-c2c(-c3ccc(F)cc3)noc2CN2CCOCC2)n1 [Example 26, 3-|3-(4-Fluoro-phenyl)-5-morpholin-4-ylmethyl-isoxazol-4-yl|-pyrazole-1-carboxylic acid isopropylamide]	≤ 1000 nM			> 15%	≤ 10 mg/kg
Cc1onc(-c2ccc(F)cc2)c1-c1nc(C(=O)NC(C)C)cs1 [Example 27, 2-|3-(4-Fluoro-phenyl)-5-methyl-isoxazol-4-yl|-thiazole-4-carboxylic acid isopropylamide]	≤ 1000 nM			> 15%	> 10 mg/kg
CC(C)NC(=O)c1csc(-c2c(-c3ccc(F)cc3)noc2C2CCNCC2)n1 [Example 35, 2-|3-(4-Fluoro-phenyl)-5-piperidin-4-yl-isoxazol-4-yl|-thiazole-4-carboxylic acid isopropylamide]	≤ 1000 nM			≤ 15%	
Cc1nc(-c2ccc(F)cc2)c(-c2nc(C(=O)NC(C)C)cs2)o1 [Example 38]	≤ 1000 nM			> 15%	≤ 10 mg/kg
CC(C)NC(=O)c1csc(-c2oc(CN3CCOCC3)nc2-c2ccc(F)cc2)n1 [Example 41, 2-|4-(4-Fluoro-phenyl)-2-morpholin-4-ylmethyl-oxazol-5-yl|-thiazole-4-carboxylic acid isopropylamide]	≤ 1000 nM			> 15%	
CC(C)NC(=O)c1csc(-c2oc(CN3CCNCC3)nc2-c2ccc(F)cc2)n1 [Example 44, 2-|4-(4-Fluoro-phenyl)-2-piperazin-1-ylmethyl-oxazol-5-yl|-thiazole-4-carboxylic acid isopropylamide]	≤ 1000 nM			≤ 15%	
Cc1nc(-c2ccc(F)cc2)c(-c2nc(C(=O)NC(C)C)cs2)s1 [Example 46, 4′-(4-Fluoro-phenyl)-2′-methyl-|2,5′|bithiazolyl-4-carboxylic acid isopropylamide]	≤ 1000 nM		> 15%		
CC(C)NC(=O)c1csc(-c2c(-c3ccc(F)cc3)n[nH]c2C2CCN(C(=O)CO)CC2)n1 [Example 62, 2-{3-(4-Fluoro-phenyl)-5-|1-(2-hydroxy-acetyl)-piperidin-4-yl|-1H-pyrazol-4-yl}thiazole-4-carboxylic acid isopropylamide]	≤ 1000 nM			> 15%	
CCNC(=O)c1csc(-c2c(-c3ccc(F)cc3)n[nH]c2C2CCN(C(=O)CO)CC2)n1 [Example 64, 2-{3-(4-Fluoro-phenyl)-5-|1-(2-hydroxy-acetyl)-piperidin-4-yl|-1H-pyrazol-4-yl}-thiazole-4-carboxylic acid ethylamide]	≤ 1000 nM			≤ 15%	
C#CCNC(=O)c1csc(-c2c(-c3ccc(F)cc3)n[nH]c2C2CCN(C(=O)CO)CC2)n1 [Example 66, 2-{3-(4-Fluoro-phenyl)-5-|1-(2-hydroxy-acetyl)-piperidin-4-yl|-1H-pyrazol-4-yl}-thiazole-4-carboxylic acid prop-2-ynylamide]	≤ 1000 nM			≤ 15%	
O=C(NCc1cccnc1)c1csc(-c2c(-c3ccc(F)cc3)n[nH]c2C2CCN(C(=O)CO)CC2)n1 [Example 68, 2-{3-(4-Fluoro-phenyl)-5-|1-(2-hydroxy-acetyl)-piperidin-4-yl|-1H-pyrazol-4-yl}thiazole-4-carboxylic acid (pyridin-3-ylmethyl)-amide]	≤ 1000 nM			> 15%	
CONC(=O)c1csc(-c2c(-c3ccc(F)cc3)n[nH]c2C2CCNCC2)n1 [Example 71, 2-|3-(4-Fluoro-phenyl)-5-piperidin-4-yl-1H-pyrazol-4-yl|-thiazole-4-carboxylic acid methoxy-amide]	≤ 1000 nM			≤ 15%	
Cc1[nH]nc(-c2ccc(F)cc2)c1-c1nc(C(=O)NCC2CC2)cs1 [Example 73, 2-|3-(4-Fluoro-phenyl)-5-methyl-1H-pyrazol-4-yl|-thiazole-4-carboxylic acid cyclopropylmethyl-amide]	≤ 1000 nM			≤ 15%	
C#CCNC(=O)c1csc(-c2c(-c3ccc(F)cc3)n[nH]c2C)n1 [Example 78, 2-|3-(4-Fluoro-phenyl)-5-methyl-1H-pyrazol-4-yl|-thiazole-4-carboxylic acid prop-2-ynylamide]	≤ 1000 nM			≤ 15%	
CC(C)NC(=O)c1csc(-c2c(-c3ccc(F)cc3)ncn2C2CCNCC2)n1 [Example 91, 2-|5-(4-Fluoro-phenyl)-3-piperidin-4-yl-3H-imidazol-4-yl|-thiazole-4-carboxylic acid isopropylamide]	≤ 1000 nM			> 15%	
CC(C)NC(=O)c1csc(-c2c(-c3ccc(F)cc3)ncn2C2CCN(C(=O)CO)CC2)n1 [Example 93, 2-{5-(4-Fluoro-phenyl)-3-|1-(2-hydroxy-acetyl)-piperidin-4-yl|-3H-imidazol-4-yl}-thiazole-4-carboxylic acid isopropylamide]	≤ 1000 nM			> 15%	

More lines, main results first:

IC50 ([1]; p38α biochemical assay)	IC50 ([1]; p38α kinase)	SMILES	inhibition at 30 mg/kg [2]	inhibition at 10 mg/kg [2]	ED50 [2]
	≤ 1000 nM	CC(C)NC(=O)c1csc(-c2c(-c3ccc(F)cc3)n[nH]c2C2CCNCC2)n1 [Example 811]		> 15%	
	≤ 1000 nM	CCNC(=O)c1csc(-c2c(-c3ccc(F)cc3)n[nH]c2C2CCNCC2)n1 [Example 2026]		> 15%	
	≤ 1000 nM	C#CCNC(=O)c1csc(-c2c(-c3ccc(F)cc3)n[nH]c2C2CCNCC2)n1 [Example 2027]		> 15%	
	≤ 1000 nM	O=C(NCc1cccnc1)c1csc(-c2c(-c3ccc(F)cc3)n[nH]c2C2CCNCC2)n1 [Example 2028]		≤ 15%	
	≤ 1000 nM	O=C(NC1CCCCC1)c1csc(-c2c(-c3ccc(F)cc3)ncn2C2CCNCC2)n1 [Example 2191, 2-|5-(4-Fluoro-phenyl)-3-piperidin-4-yl-3H-imidazol-4-yl|-thiazole-4-carboxylic acid cyclohexylamide]			
	> 1000 nM	CCN(C(=O)NCCCN(C)C)C(=O)c1csc(-c2c(-c3ccc(F)cc3)ncn2C2CCNCC2)n1 [Example 2192, 3-(3-Dimethylamino-propyl)-1-ethyl-1-{2-|5-(4-fluoro-phenyl)-3-piperidin-4-yl-3H-imidazol-4-yl|-thiazole-4-carbonyl}-urea]			
	> 1000 nM	CC(C)NC(=O)c1csc(-c2c(-c3ccc(F)cc3)ncn2C2CCN(CCO)CC2)n1 [Example 2193, 2-{5-(4-Fluoro-phenyl)-3-|1-(2-hydroxy-ethyl)-piperidin-4-yl|-3H-imidazol-4-yl}-thiazole-4-carboxylic acid isopropylamide]			
	≤ 1000 nM	CC(=O)N1CCC(n2cnc(-c3ccc(F)cc3)c2-c2nc(C(=O)NC(C)C)cs2)CC1 [Example 2194, 2-|3-(1-Acetyl-piperidin-4-yl)-5-(4-fluoro-phenyl)-3H-imidazol-4-yl|-thiazole-4-carboxylic acid isopropylamide]			
	> 1000 nM	Cc1[nH]nc(-c2ccc(F)cc2)c1-c1nc(C(=O)NC(C)C)ns1 [Example 2195, 5-|3-(4-Fluoro-phenyl)-5-methyl-1H-pyrazol-4-yl|-|1,2,4|thiadiazole-3-carboxylic acid isopropylamide]			
	> 1000 nM	Cc1[nH]nc(-c2ccc(F)cc2)c1-c1nc(C(=O)NC(C)C)no1 [Example 2196, 5-|3-(4-Fluoro-phenyl)-5-methyl-1H-pyrazol-4-yl|-|1,2,4|oxadiazole-3-carboxylic acid isopropylamide]			
